Results from PMC5180209 (Structure (London, England : 1993), 2016).

Target: B56 (Homo sapiens, UniProt Q13362)
Test: Isothermal titration calorimetry
Type: binding
Conditions: ITC

reduction of binding to B56 on removing residue 676 altogether (668KLpSPIIED675 compared with the 668-676 peptides)	increase of binding affinity for B56 as the salt concentration is reduced (salt concentration 300 mM to 150 mM)	Substance
~ 1.7 fold	–	KLpSPIIED
–	~ 3.6 fold	KLpSPIIEDE
